We go through four molecules from patent US20230355727A1, “TREATMENT OF RETINAL DISORDERS” (Tel HaShomer Medical Research Infrastructure and Services …, priority 2020, published 2023).

The subject of data set [1] is glioma cell lines. The conditions noted are these: inhibition of thrombin activity and blocking PAR1 activation; Shavit-Stein et al. 2018; cited from earlier work.
The test system of data set [2] is diabetic rats. The conditions noted are these: STZ-induced diabetes; Shavit-Stein et al. PLoS One 2019; cited from earlier work.
For data set [3], the system named is STZ-induced diabetic C57BL/6 mice. As to the kind of experiment: Retinal function by ERG in STZ-induced diabetic mice. The data set is classed as in vivo, mouse. As to the method: Diabetes induction: Diabetes was induced in mice at age of 8 weeks by a single intraperitoneal injection of 150 mg/Kg STZ (Sigma-Aldrich). Blood glucose concentration was measured from the tail vein using Xpress-i glucometer (Nova Biomedical). Hyperglycemia was defined as blood glucose >[…] [Shavit-Stein et al. (2019) PLoS One 14, e0219453].
Electroretinogram (ERG): Mice were dark-adapted for 16 hours. ERG responses to light flashes at 5 increasing intensities (0.023, 0.249, 2.44, 7.8 and 23.5 cd-s/m^2) are recorded from both eyes simultaneously. Light-adapted ERG is similarly performed following 5 minutes light adaptation [Edelshtain et al. (2019) Algal Research 43, 101607].
C57BL/6 mice received either sham (PBS, n=5) or PARIN5 (100 nM in PBS, n=7) treatment for 7 days, starting at three days after diabetes induction by STZ injection. Retinal function was determined by ERG. Treatment included intraperitoneal (IP) injection (0.5 µl/gram, once a day) and eye drops (10 µl/eye, once a day).
In further experiments, STZ-induced diabetic were treated with eye drops, 100 nM PARIN5 in PBS (10 µl/eye, once a day), for 5 weeks. Non-diabetic mice and diabetic non-treated mice served as control.

Data set [4] deals with ALS animal model SOD-1. The conditions noted are these: SOD-1 ALS animal model; cited from earlier work.

“Also recorded” adds a separate entry of the source. Peptide text beside a SMILES is read from it. * marks the point of attachment. Tos = Cc1ccc(S(=O)(=O)*)cc1; CH2Cl = ClC*

Regarding `N=C(N)c1ccc(CC(NC(=O)CNS(=O)(=O)c2ccc3ccccc3c2)C(=O)N2CCCCC2)cc1` (racemic) [NAPAP, Nα-(2-naphthyl-sulphonyl-glycyl)-DL-p-amidinophenylalanyl-piperidine], the “Growth of glioma cell lines” value in data set [1] was “significantly inhibits their growth”. For the same molecule, the “Nerve conduction velocity in diabetic rats” value in data set [2] was “prevent the decreased nerve conduction velocity”.

For the molecule `Cc1ccc(S(=O)(=O)N[C@H](C(=O)N[C@@H](CC(C)C)C(=O)N[C@@H](CC(=O)O)C(=O)N2CCC[C@H]2C(=O)N[C@@H](CCCNC(=N)N)C(=O)CCl)[C@@H](C)O)cc1` [PARIN5, ^37TLDPR^41-CMK] (Tos-TLDPR-CH2Cl), in data set [3] (100 nM in PBS eye drops, 10 µl/eye once a day, 5 weeks, measured 2 and 5 weeks after STZ, all p>0.3, FIG. 6), the “Retinal function by ERG b-wave after 5 weeks of daily eye drops, versus control non-diabetic mice” value is recorded as “no significant differences; also recorded: protected the mouse retinal function”. The “Retinal function by ERG (b-wave) after 7-day treatment” value in data set [3] (100 nM in PBS, IP injection 0.5 µl/gram plus eye drops 10 µl/eye, once a day, 7 days, from three days after STZ, versus sham PBS, FIG. 5) was “preserved mouse retinal function”.

For the molecule `CC(C)c1ccc(Cn2ccc3c4c(N)nc(NC5CC5)nc4ccc32)cc1.Cl.Cl` [SCH79797, N3..Cyclopropyl-7..[[4..(1.. methylethyl)phenyl]methyl]-7H-pyrrolo[3,2-f]quinazoline-1,3-diamine dihydrochloride], in data set [4], the “Life span of ALS model animals” value is recorded as “increase the life span of these ALS model animals significantly”.

For the molecule `Cc1ccc(S(=O)(=O)N[C@@H](CCCCN)C(=O)CCl)cc1` [TLCK, N-alpha-tosyl-L-lysine chloromethyl ketone], the “Life span of ALS model animals” value in data set [4] is “increase the life span of these ALS model animals significantly”.
